Experimental data: US3995047A, “Propiophenone derivatives in the treatment of pathological muscular conditions” (Eisai Co., Ltd., priority 1973, dated 1976)

Legend:
[1] = tested on: isolated smooth muscle preparations; assay: Smooth muscle-relaxing activity on isolated smooth muscle preparations; settings: for smooth muscle-relaxant activity (in words): A at 4 × 10^-6, B at 10^-6, C at 4 × 10^-7 g/ml, concentration for control not stated
Text: (§1) Additionally, anti-histamine, anti-acetylcholine, antiserotonin and smooth muscle-relaxing activities of the compounds under test were examined on isolated smooth muscle preparations.

in vivo = assay: in vivo; set-up: species or system male d,d-strain mice; settings: mouse, po
Description: (§2) Male d,d-strain mice weighing 18 to 22 grs. were used for the experiments.
(§3) Groups of each 10 mice were treated orally and intraperitoneally with a wide range of doses of the above-mentioned compounds or saline.

[2] = Acute toxicity: mortality during 24 hours after oral administration; type: in vivo; settings: mouse, in vivo, mice, mortality during 24 hours
Description: as §2, §3
(§4) The mortality ensued during 24 hours after the oral administration was recorded to determine acute toxicity of the compound under test on the mice.

mice = assay: as above; type: in vivo; settings: 24 hours
Description: as §2, §3, §4

[3] = tested on: isolated smooth muscle preparations (acetylcholine); assay: Anti-acetylcholine activity on isolated smooth muscle preparations; settings: A at 4 × 10^-6, B at 10^-6, C at 4 × 10^-7 g/ml
Text: as §1

[4] = tested on: isolated smooth muscle preparations (histamine); assay: Anti-histamine activity on isolated smooth muscle preparations; settings: A at 4 × 10^-6, B at 10^-6, C at 4 × 10^-7 g/ml
Text: as §1

[5] = tested on: nicotine-induced convulsive death; assay: Anti-nicotine activity: antagonism of convulsive death caused by nicotine; type: in vivo, male d,d-strain mice; settings: Mus musculus, mice
Description: as §2, §3
(§5) 2) Anti-nicotine and anti-physostigmine activities:
(§6) Antagonistic effects against the convulsive death of the mice caused by the injections of nicotine, on one hand, and physostigmine, on the other hand, were observed as follows:
(§7) Thirty (30) minutes after the intraperitoneal injection of the individual compounds under test, on one hand, and 60 minutes after the oral administration of said individual compounds, on the other hand, 4 mg/kg of nicotine tartrate, on one hand, and 0.5 mg/kg of physostigmine sulfate, on the other hand, were intravenously injected to each group of the mice. The convulsive death, if any, of the mice in each group was then observed.

tremorine-induced tremor = assay: Anti-tremorine activity: antagonism of tremorine-induced tremor; type: in vivo, male d,d-strain mice; settings: Mus musculus, mice
Description: as §2, §3
1) Anti-tremorine activity:
Antagonistic effects on the tremorine-induced tremor were observed as follows:
Ten (10) minutes after the intraperitoneal injection of the individual compounds under test, on one hand, and 40 minutes after the oral administration of said individual compounds, on the other hand, 20 mg/kg of tremorine hydrochloride were subcutaneously injected to each group of the mice. The occurrence of tremor on the individually caged mice was visually observed 20 minutes after the tremorineinjection.

[6] = tested on: physostigmine-induced convulsive death; assay: Anti-physostigmine activity: antagonism of convulsive death caused by physostigmine; type: in vivo, male d,d-strain mice; settings: Mus musculus, 1 h; oral, mice, 60 minutes after administration; footnote 1) for control: no effect up to the dose
Description: as §2, §3, §5, §6, §7

[7] = 1 h, oral, 60 minutes after administration
[8] = ip, 0.5 h, intraperitoneal, 30 minutes after injection

Compound	smooth muscle-relaxant activity (in words) [1]	TD50 at 1 h (in vivo) [mg/kg]	LD50 at 24 h [2] [mg/kg]	acute toxicity compared with Compound under control (in words) (mice)	anti-acetylcholine activity (in words) [3]	anti-histamine activity (in words) [4]	ED50 [5, 7] [mg/kg]	ED50 [5, 8] [mg/kg]	ED50 (tremorine-induced tremor; [7]) [mg/kg]	ED50 (tremorine-induced tremor; [8]) [mg/kg]	ED50 [6] [mg/kg]	smooth muscle-relaxant potency relative to papaverine ([1]; Compound under control vs papaverine)
CCc1ccc(C(=O)C(C)CN2CCCCC2)cc1.Cl (centres unmarked) [Compound A, 4'-ethyl-2-methyl-3-piperidino-propiophenone hydrochloride]	strong smooth muscle-relaxant activities	640	800 to 1000	slighly stronger	do not entirely produce	do not entirely produce	175	21	32	23	84	
CCCc1ccc(C(=O)C(C)CN2CCCCC2)cc1.Cl (centres unmarked) [Compound B, 4'-n-propyl-2-methyl-3-piperidino-propiophenone hydrochloride]	strong smooth muscle-relaxant activities	800	1000 to 1500	almost equivalent to that of Compound under control	do not entirely produce	do not entirely produce	135	20	50	21	150	
CC(CN1CCCCC1)C(=O)c1ccc(C(C)C)cc1.Cl (centres unmarked) [Compound C, 4'-isopropyl-2-methyl-3-piperidino-propiophenone hydrochloride]	strong smooth muscle-relaxant activities	84	400 to 500		do not entirely produce	do not entirely produce	37	10	118	25	50	
Cc1ccc(C(=O)C(C)CN2CCCCC2)cc1.Cl (centres unmarked) [Compound for Control, 2,4'-dimethyl-3-piperidino-propiophenone hydrochloride, reference compound]	weak smooth muscle-relaxant activity	800	1000 to 1500				450	35	210	80	> 400	about 1/3
